How the values were obtained:
rat = experiment: apomorphine stereotypy test / stereotypy in the rat; format: in vivo; conditions: 30 mg/kg i.p.
Experimental: The compounds moreover induce stereotypy in the rat at a dose of about 30 mg/kg i.p.
and has a score. in the apomorphine stereotypy test of 15.7 at 30 mg/kg i.p .

rat brain = experiment: carbon-14-2-deoxyglucose autoradiographic technique, local cerebral glucose utilisation; format: in vivo; conditions: 3 mg/kg i.p.
Experimental: Moreover the compounds increase the local cerebral glucose utilisation in the sensomotor cartex, e.g. Hippocampus, Nucleus habenula, Nucleus corpus gentcul . As indicated by the carbon-14-2-deoxyglucose autoradiographic technique with the rat brain on administration i.p. of from about 0.3 to about 30 mg/kg of the compounds [for method see e.g. L. Solokoff, Journal of Cerebral Blood Flow and Metabolism, 1981, (1), 7-36, H. E. Savaki et al. Brain Research 1982, 233, 347 and J. McCulloch et al. Journal of Cerebral Blood Flow and Metabolism 1981, 1, 133-136.

2-methyl-9,10-dihydro-9'-thia-α-ergocryptine
score in the apomorphine stereotypy test (rat): 15.7
increase in local cerebral glucose utilisation, Hippocampus (rat brain; Hippocampus): +2%
increase in local cerebral glucose utilisation, Nucleus dors.corpus genicul.lat (rat brain; Nucleus dors.corpus genicul.lat): +25%
increase in local cerebral glucose utilisation, Nucleus lateralis huberula (rat brain; Nucleus lateralis huberula): +22%
